Assay results reported in US12037324B2, “Biarylmethyl heterocycles” (Université de Montréal, priority 2016, dated 2024).

Experiments:
[1] = target: T1, AGTR1 (Homo sapiens, UniProt P30556); experiment: DiscoveRx IP1 accumulation assay (HTRF), agonist mode, Pathunter CHO-K1 AGTR1 β-arrestin cell line; type: cell-based; conditions: for EC50: read-out: IP-1 EC50
T1 construct: host or cells: Pathunter CHO-K1 AGTR1 β-arrestin cell line (CHO-K1)
T1 sequence (P30556 1-359): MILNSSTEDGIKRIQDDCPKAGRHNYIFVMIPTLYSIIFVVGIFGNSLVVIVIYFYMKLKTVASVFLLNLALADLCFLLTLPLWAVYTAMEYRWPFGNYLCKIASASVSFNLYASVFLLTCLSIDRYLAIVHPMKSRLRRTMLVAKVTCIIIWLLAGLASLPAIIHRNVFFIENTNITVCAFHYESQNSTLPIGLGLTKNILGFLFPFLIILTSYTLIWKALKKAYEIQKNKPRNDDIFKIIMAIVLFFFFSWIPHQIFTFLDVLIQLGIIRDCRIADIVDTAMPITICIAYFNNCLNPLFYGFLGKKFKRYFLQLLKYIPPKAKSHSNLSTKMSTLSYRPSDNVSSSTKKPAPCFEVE
Outline: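 Agonist mode in CHO-K1 AGTR1 β-arrestin cells plated 14-16 h before; compounds at varying concentrations for 90 min at 37° C, IP1 accumulation read by HTRF (D2-conjugate and anti-IP1 cryptate, 20 min room temperature). EC50 from 4-parameter logistic fit; activity given as percentage of maximal AII effect.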

[2] = target: T2, hAT1R (Homo sapiens, UniProt P30556); experiment: cell-based; conditions: agonist mode; for EC50: read-out: BRET P63 EC50
T2 sequence (P30556 1-359): T1 sequence (P30556 1-359)

[3] = target: T1, AGTR1; experiment: DiscoveRx β-arrestin2 recruitment assay (enzyme complementation, Pathunter CHO-K1 AGTR1 β-arrestin cell line); type: cell-based; conditions: DiscoveRx β-arrestin2 recruitment; for DiscoveRx β-arrestin2 Ymax (%): maximal response
Outline: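 CHO-K1 cells expressing AGTR1 with β-arrestin2 enzyme-complementation reporter, plated 14-16 h ahead in 1% serum medium, then exposed to compounds for 90 min at 37° C. Chemiluminescence read after 1 h detection. EC50 (agonist) or IC50 (antagonist) from 4-parameter logistic fit; activity as percentage of All maximal effect.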

[4] = target: T2, hAT1R; experiment: BRET β-arrestin2 biosensor assay, higher receptor expression (hAT1R 5 ng/well), HEK293 cells; type: cell-based; conditions: for EC50: High AT1R Expression
[5] = target: T2, hAT1R; experiment: cell-based; conditions: section of the 42nd table ending at r951, example numbering restarts after the DiscoveRx section; read-out: β-arrestin2 EC50

Row | SMILES | IP-1 Ymax (%) [1] | EC50 [1] | BRET P63 Ymax [2] | EC50 [2] | EC50 [3] | DiscoveRx β-arrestin2 Ymax (%) [3] | BRET β-Arrestin2 High AT1R Expression Ymax (%) [4] | EC50 [4] | EC50 [5]
1 | CCc1nc2c(C)cc(C)nc2n1Cc1ccc(-c2cc(-c3cccc(C)c3)ccc2C(=O)O)cn1 [Example 195, 3-(6-((2-ethyl-5,7-dimethyl-3H-imidazo[4,5-b]pyridin-3-yl)methyl)pyridin-3-yl)-3′-methylbiphenyl-4-carboxylic acid] | 5.3% | 358 nM | 13.6% | 264 nM | 694 nM | 77.6% | 87.0% | 101 nM | 282 nM
2 | CCc1nc2c(C)cc(C)nc2n1Cc1ccc(-c2cc(-c3ccccc3)ccc2C(=O)O)cn1 [Example 196, 3-(6-((2-ethyl-5,7-dimethyl-3H-imidazo[4,5-b]pyridin-3-yl)methyl)pyridin-3-yl)-[1,1′-biphenyl]-4-carboxylic acid] | 12.1% | 869 nM | 7.6% | 1100 nM | 3020 nM | 50.4% | 83.3% | 618 nM | 1700 nM
3 | CCc1nc2c(C)cc(C)nc2n1Cc1ccc(-c2cc(Oc3ccccc3)ccc2-c2nnn[nH]2)cc1 [Example 204, 2-Ethyl-5,7-dimethyl-3-((5′-phenoxy-2′-(1H-tetrazol-5-yl)-[1, 1′-biphenyl]-4-yl)methyl)-3H-imidazo[4,5-b]pyridine] | 14.4% | 66.8 nM | 9.4% | 10.7 nM | 26.4 nM | 42.4% | 85.9% | 3.6 nM | 9.8 nM
4 | CCc1nc2c(C)cc(C)nc2n1Cc1ccc(-c2cc(Oc3ccccc3F)ccc2-c2nnn[nH]2)cc1 [Example 205, 2-Ethyl-3-((5′-(2-fluorophenoxy)-2′-(1H-tetrazol-5-yl)-[1,1′-biphenyl]-4-yl)methyl)-5,7-dimethyl-3H-imidazo[4,5-b]pyridine] | 16.7% | 70.2 nM | 20.2% | 18.4 nM | 31.8 nM | 42.2% | 92.1% | 4.8 nM | 21.3 nM
5 | CCc1nc2c(C)cc(C)nc2n1Cc1ccc(-c2cc(Oc3ccc(F)cc3F)ccc2-c2nnn[nH]2)cc1 [Example 208] | 19.9% | 106 nM | 17.4% | 13.3 nM | 20.8 nM | 44.8% | 103.1% | 6 nM | 26.4 nM
6 | CCc1nc2c(C)cc(C)nc2n1Cc1ccc(-c2cc(OC3CCCCC3)ccc2-c2nnn[nH]2)cc1 [Example 209, 3-((5′-(Cyclohexyloxy)-2′-(1H-tetrazol-5-yl)-[1,1′-biphenyl]-4-yl)methyl)-2-ethyl-5,7-dimethyl-3H-imidazo[4,5-b]pyridine] | 25.5% | 110 nM | 32.6% | 37.6 nM | 45.9 nM | 49.6% | 90.6% | 7.2 nM | 50 nM
7 | CCc1nc2c(C)cc(C)nc2n1Cc1ccc(-c2cc(Oc3ccccc3F)ccc2-c2noc(=O)[nH]2)cc1 [Example 214, 3-(4′-((2-Ethyl-5,7-dimethyl-3H-imidazo[4,5-b]pyridin-3-yl)methyl)-5-(2-fluorophenoxy)-[1,1′-biphenyl]-2-yl)-1,2,4-oxadiazol-5(4H)-one] | 50.0% | 89.6 nM | 43.3% | 35.6 nM | 76.1 nM | 74.1% | 86.5% | 4.2 nM | 15.9 nM
8 | CCc1nc2c(C)cc(C)nc2n1Cc1ccc(-c2cc(-n3cc(C4CC4)nn3)ccc2-c2nnn[nH]2)cc1 [Example 225, 3-((5′-(4-Cyclopropyl-1H-1,2,3-triazol-1-yl)-2′-(5H-tetrazol-5-yl)-[1,1′-biphenyl]-4-yl)methyl)-2-ethyl-5,7-dimethyl-3H-imidazo[4,5-b]pyridine] | 7.0% | 25.2 nM | 7.1% | 29.5 nM | 29 nM | 35.4% | 82.1% | 10.9 nM | 187 nM
